From US7960397B2, “6,9-disubstituted purine derivatives and their use as cosmetics and cosmetic compositions” (Institute of Experimental Botany, Academy of Sciences of …, priority 2007, dated 2011)

Legend:
[1] = system: cytokinin-dependent tobacco callus Nicotiana tabacum L. cv. Wisconsin 38; experiment: Cytokinin activity in tobacco callus bioassay; type: cell-based; conditions: for concentration with highest activity: growth of tobacco callus, four weeks of cultivation, tested 10^−8 M to 10^−4 M; for Activity (%) [10^−5 mol · l^−1 BAP = 100%]: increase of fresh callus weight at the concentration with highest activity, 10^−5 M BAP = 100%
Description: Estimation of cytokinin biological activity of novel compounds in callus bioassay. Cytokinin-dependent tobacco callus Nicotiana tabacum L. cv. […] Subcultivation was carried out every three weeks. Fourteen days before the bioassay, the callus tissue was transferred to the media without the compound tested. The biological activity was determined from the increase of the fresh callus weight after four weeks of cultivation. Five replicates were prepared for each concentration of the compound tested and the entire test was repeated twice. […] The relative activity of the compound at this concentration was calculated (Table 8). […] The compounds to be tested were dissolved in dimethylsulfoxide (DMSO) and the solution brought up to 10^−3 M with distilled water. This stock solution was further diluted with the respective media used for the biotest to a concentration ranging from 10^−8 M to 10^−4 M.

[2] = system: Amaranthus caudatus cotyledon/hypocotyl explants; experiment: Amaranthus bioassay (betacyanin content); design: species or system Amaranthus caudatus var. atropurpurea; conditions: for concentration with highest activity: betacyanin content after 48 h incubation, tested 10^−8 M to 10^−4 M; for Activity (%) [10^−5 mol · l^−1 BAP = 100%]: betacyanin content at the concentration with highest activity, 10^−5 M BAP = 100%
Description: Testing of novel compounds for typical cytokinin activity in Amaranthus bioassay. A standard Amaranthus bioassay was performed with several modifications. The seeds of Amaranthus caudatus var. atropurpurea were surface-sterilized in 10% (w/v) N-chlorobenzenesulfonamide for 10 min and washed 5 times with deionized water. They were placed in 14 cm Petri dishes containing paper tissues saturated with deionized water. After 72 h of cultivation at 25° C. in darkness, the roots of the seedlings were cut off. The explants, consisting of two cotyledons and hypocotyls, were placed in 5 cm Petri dishes onto two layers of filter paper soaked with 1 ml of the incubation medium containing 10 mmol of NA2HPO4—KH2PO4, pH 6.8, 5 mmol of tyrosine and the compound to be tested. There were 20 explants per dish. The procedure was carried out under a green safe light in a darkroom. […] The concentration of betacyanin was determined from the absorbencies at 537 nm and 620 nm as follows: DA=A537 nm−A620 nm. […] Relative activity of the compound at this concentration was calculated. The activity obtained for 10^−5 M 6-benzylaminopurine (BAP) was defined as 100%.
(§1) The compounds to be tested were dissolved in dimethylsulfoxide (DMSO) and the solution brought up to 10^−3 M with distilled water.

excised wheat leaf tips = experiment: Antisenescence test, retention of chlorophyll in excised wheat leaf tips; design: species or system Triticum aestivum cv. Hereward; conditions: for activity (%) [10^−4 mol · l^−1 BAP = 100%]: retention of chlorophyll in excised wheat leaf tips at the concentration with highest activity, 10 replicate determinations; for concentration with highest activity: retention of chlorophyll in excised wheat leaf tips, tested range 10^−8 M to 10^−4 M, 96 h in the dark at 25° C.
Description: Testing of antisenescence properties of novel cytokinin compounds on wheat leaf segments. Seeds of winter wheat, Triticum aestivum cv. Hereward, were washed under running water for 24 hours and then sown on vermiculite soaked with the Knop's solution. They were placed in the grow chamber at 25° C. with a 16 h-8 h light period at 50 mmol.m^−2.s^−1. After 7 days, the first leaf was fully developed and the second leaf had started to grow. A 35 mm long tip section of the first leaf, was removed from each of 5 seedlings and trimmed slightly to a combined weight of 100 mg. The basal ends of the five leaf tips were placed in the wells of a microtiter polystyrene plate containing […] of the solution of the tested compound each. The entire plate was inserted into a plastic box lined with paper tissues soaked with distilled water to prevent leaf sections from drying out. After 96 h incubation in the dark at 25° C., the leaves were removed and chlorophyll was extracted by heating at 80° C. for 10 min in 5 ml of 80% ethanol (v/v). The sample volume was then restored to 5 ml by the addition of 80% ethanol (v/v). The absorbance of the extract was recorded at 665 nm. In addition, chlorophyll extracts from fresh leaves and leaf tips incubated in deionized water were measured. […] Relative activity of the compound at this concentration was calculated (Table 7). The activity obtained for 10^−4 M 6-benzylaminopurine (BAP) was defined as 100%. The values shown are means of five replicates and the whole experiment was repeated twice.
as §1

[3] = system: human diploid fibroblasts (HCA cells, HCA20, HCA40, HCA60); experiment: Senescent cells (β-galactosidase staining) in culture of human fibroblasts; type: cell-based; conditions: for SENESCENT CELLS (%) HCA20: human fibroblasts passage 20 (HCA20); for SENESCENT CELLS (%) HCA40: human fibroblasts passage 40 (HCA40); for SENESCENT CELLS (%) HCA60: human fibroblasts passage 60 (HCA60)
Description: In this example, human diploid fibroblasts (HCA cells of various passage levels: passage 20—designated HCA20; passage 40—designated HCA40; passage 60—designated HCA60) were stained for β-galactosidase activity. The medium used for the cell cultivation was removed, the cells were washed twice in […], and fixed in 2-3 ml of fixing solution comprised of a 2% formaldehyde and 0.2% glutaraldehyde in PBS. The cells were incubated at room temperature for 5 minutes, and then washed twice with PBS. The cells were subsequently incubated at 37° C.

Row | Structure (SMILES) | concentration with highest activity [1] | Activity (%) [10^−5 mol · l^−1 BAP = 100%] [1] [%] | concentration with highest activity [2] | Activity (%) [10^−5 mol · l^−1 BAP = 100%] [2] [%] | activity (%) [10^−4 mol · l^−1 BAP = 100%] (excised wheat leaf tips) [%] | concentration with highest activity (excised wheat leaf tips) | SENESCENT CELLS (%) HCA20 [3] [%] | SENESCENT CELLS (%) HCA40 [3] [%] | SENESCENT CELLS (%) HCA60 [3] [%]
1 | COc1cccc(CNc2ncnc3c2ncn3C2CCCCO2)c1O (stereo not drawn) | 10^−6 mol · l^−1 | 11 | 10^−4 mol · l^−1 | 32 | 50 | 10^−4 mol · l^−1 | 3 | 3 | 25
2 | Cc1cccc(CNc2ncnc3c2ncn3C2CCCCO2)c1O (stereo not drawn) | 10^−5 mol · l^−1 | 9.2 | 10^−4 mol · l^−1 | 68.8 | 16.4 | 10^−4 mol · l^−1 | 4 | 6 | 30
3 | COc1ccc(CNc2ncnc3c2ncn3C2CCCCO2)c(O)c1 (stereo not drawn) | 10^−6 mol · l^−1 | 43 | 10^−4 mol · l^−1 | 37 | 35 | 10^−4 mol · l^−1 | 3 | 4 | 27
4 | Cc1ccc(O)c(CNc2ncnc3c2ncn3C2CCCCO2)c1 (stereo not drawn) | 10^−4 mol · l^−1 | 121 | 10^−4 mol · l^−1 | 68.4 | 82 | 10^−4 mol · l^−1 | 5 | 4 | 30
5 | Oc1ccoc1CNc1ncnc2c1ncn2C1CCCCO1 (stereo not drawn) | 10^−6 mol · l^−1 | 52 | 10^−4 mol · l^−1 | 65 | 45 | 10^−4 mol · l^−1 | 4 | 4 | 18
6 | COc1cc(O)cc(OC)c1Nc1ncnc2c1ncn2C1CCCCO1 (stereo not drawn) | 10^−5 mol · l^−1 | 15 | 10^−4 mol · l^−1 | 8 | 14 | 10^−4 mol · l^−1 | 4 | 6 | 24
7 | CC(CO)CCNc1ncnc2c1ncn2C1CCCO1 (stereo not drawn) | 10^−5 mol · l^−1 | 105 | 10^−4 mol · l^−1 | 80 | 91 | 10^−4 mol · l^−1 | 5 | 2 | 25
8 | COc1cc(Nc2ncnc3c2ncn3C2CCCCO2)cc(OC)c1O (stereo not drawn) | 10^−5 mol · l^−1 | 19 | 10^−4 mol · l^−1 | 10 | 28 | 10^−4 mol · l^−1 | 4 | 5 | 22
9 | COc1cc(CNc2ncnc3c2ncn3C2CCCCO2)cc(OC)c1O (stereo not drawn) | 10^−5 mol · l^−1 | 39 | 10^−4 mol · l^−1 | 8 | 42 | 10^−4 mol · l^−1 | 4 | 5 | 17
10 | Oc1ccccc1Nc1ncnc2c1ncn2C1CCCCO1 (stereo not drawn) [2-hydroxyanilino / tetrahydropyran-2-yl] | 10^−5 mol · l^−1 | 30 | 10^−4 mol · l^−1 | 65 | 11 | 10^−4 mol · l^−1 | 4 | 6 | 29
11 | Oc1cccc(Nc2ncnc3c2ncn3C2CCCCO2)c1 (stereo not drawn) [3-hydroxyanilino / tetrahydropyran-2-yl] | 10^−5 mol · l^−1 | 65 | 10^−4 mol · l^−1 | 122 | 23 | 10^−4 mol · l^−1 | 5 | 4 | 28
12 | Oc1ccccc1CNc1ncnc2c1ncn2C1CCCO1 (stereo not drawn) [6-(2-hydroxybenzylamino)-9-(tetrahydrofuran-2-yl)-purine] | 10^−5 mol · l^−1 | 78 | 10^−4 mol · l^−1 | 33 | 26 | 10^−4 mol · l^−1 | 4 | 2 | 26
13 | Oc1ccccc1CNc1ncnc2c1ncn2C1CCCCO1 (stereo not drawn) [6-(2-hydroxybenzylamino)-9-(tetrahydropyran-2-yl)purine] | 10^−5 mol · l^−1 | 80 | 10^−4 mol · l^−1 | 41.6 | 23.6 | 10^−4 mol · l^−1 | 4 | 2 | 26
14 | Oc1cccc(CNc2ncnc3c2ncn3C2CCCO2)c1 (stereo not drawn) [6-(3-hydroxybenzylamino)-9-(tetrahydrofuran-2-yl)-purine] | 10^−5 mol · l^−1 | 125 | 10^−4 mol · l^−1 | 107 | 113 | 10^−4 mol · l^−1 | 5 | 3 | 25
